# Measured values: US6458764B1, “GRF analogs with increased biological potency” (Theratechnologies Inc., priority 1995, dated 2002)
# Where no end group is shown, it is not given here. The star is where a group is joined. Hexenoyl(3E) = CC/C=C/CC(=O)*
# Tests used:
# IGF-1 levels in pig sera = experiment: Effect of hGRF(1-44)NH2 analogs on IGF-1 levels following S.C. chronic administration in growing male pigs (Example XI, IRMA); type: in vivo
# Procedure: The objective of this experiment was to compare the effects of 8 different hGRF(1-44)NH2 analogues including TH 9507 on IGF-1 levels following S.C. chronic administration in growing male pigs.
# Animal procedures were conducted as described in the protocol GRF-30 submitted Apr. 30, 1999, with the following modification: only 8 GRF analogues, including TH 9507, were provided by the sponsor. Accordingly, the study was performed on 30 pigs.
# Laboratory procedures were conducted as follow: IGF-l levels were measured in pig sera using a commercial kit (DSL-5600) purchased from Diagnostic Systems Laboratories Inc., Tex., USA. Briefly, IGF-1 levels are quantified using a two-site immunoradiometric assay (IRMA) following acid-ethanol extraction.
# Statistical analysis: IGF-1 data were subjected to a two-way repeated measures analysis of variance, with time (day 1, 3 or 6) and treatments (A to J) as variation factors pairwise multiple comparison procedures were then run by the Student-Newman-Keuls method. All statistical procedures were performed using the computerized SigmaStat software (Jandel Scientific). A P<0.05 was considered statistically significant.
# pig serum GH [1] = experiment: Intravenous GH-releasing potency in pigs (Example III); type: in vivo, pigs (Landrace x Yorkshire); conditions: 4 μg/kg
# Procedure: This experiment was conducted to test the I.V. acute GH-releasing potency of (Hexenoyl trans-3)0 hGRF (1-29) NH2, a GRF analog, in a model physiologically close to human and to compare it to that of hGRF(1-29)NH2.
# (Hexenoyl trans-3)0 hGRF (1-29) NH2 is a combination of the natural hGRF(1-29)NH2 and natural fatty acids. This study was a multidose, single I.V. injection study.
# ADMINISTRATION: intravenous acute injection.
# (§1) TEST SYSTEM: Landrace x Yorkshire pigs.
# DESIGN: […] pigs (4 spare animals) were cannulated (a catheter surgically implanted in one jugular vein) within on week, before the study. On days 1 and 7, cannulated animals were randomly distributed into 7 groups (n=4 pigs per group).
# Blood samples for pGH assay were collected every 20 min from 1 hour before to 5 hours after GRF injections, with additional samplings 10 and 30 min after injection (n=21 samples). Blood samples are allowed to clot at +4° C. Serum will be harvested by centrifugation, stored at −20° C. and submitted to pGH assays.
# serum IGF-I = experiment: Repeated S.C. administrations of GRF analogs, serum IGF-I levels in pigs (Example I, Experiments 1-3; radioimmunoassay); type: in vivo, pigs (Landrace x Yorkshire); conditions: for serum IGF-I, Day 1 (pretreatment): pretreatment baseline
# Procedure: The objective of these experiments was to assess the potential of the GRF analogs as anabolic agents.
# Therefore, in order to investigate the anabolic potency of the fatty acid-GRF analogs, their ability to increase IGF-I levels following repeated S.C. administrations in pig was evaluated.
# 26 Landrace x Yorkshire castrated male pigs (40-45 kg BW) were randomly distributed into 4 experimental groups:
# Each animal was injected BID (twice a day) subcutaneously for 4 consecutive days. One blood sample was collected each morning prior to the first injection of the day, and the day after the last injection, for IGF-I measurement.
# 40 Landrace x Yorkshire castrated male pigs (40-45 kg BW) were randomly distributed into 5 experimental groups:
# (§2) Each animal was injected BID (twice a day) subcutaneously for 5 consecutive days. One blood sample was collected each morning prior to the first injection of the day, and the day after the last injection, for IGF-I measurement.
# 48 Landrace x Yorkshire castrated male pigs (40-45 kg BW) were randomly distributed into 6 experimental groups:
# as §2, with “The selected doses were 30 μg/kg for hGRF(1-44)NH2 analogs and 20 μg/kg for hGRF(1-29)NH2 analogs, which give identical doses on a molar basis. Each” for “Each”, “measurements.” for “measurement.”
# IGF-I levels were measured in pig serum by double antibody radioimmunoassay after formic acid-acetone extraction, as previously described (Abribat T. et al., 1993, J. Endocrinol., 39:583-589). The extraction prior to radioimmunoassay is a necessary step to remove endogenous IGF-binding proteins.
# In both experiments, the IGF-I data were analyzed by a two way repeated measure analysis of variance, with day and treatment (GRF analog) as sources of variation. Multiple comparison procedures were there run (Student-Newman Keuls method). A P<0.05 was considered as statistically significant.
# [2] = metabolites have no residual biological activity; cited from earlier work
# pig serum GH [3] = experiment: Subcutaneous GH-releasing potency in pigs (Example IV); type: in vivo, pigs (Landrace x Yorkshire); conditions: for effect on GH area under the curve, 0 to 420 minutes following injection: S.C., FIG. 5
# Procedure: This experiment was conducted to test the S.C. acute GH-releasing potency of (Hexenoyl trans-3)0 hGRF (1-29) NH2, a GRF analog, in a model physiologically close to human and to compare it to that of hGRF(1-29)NH2.
# ADMINISTRATION: Subcutaneous acute injection.
# as §1
# DESIGN: Thirty six (36) pigs (4 spare animals) were cannulated (a catheter surgically implanted in one jugular vein) within one week, before the study. On days 1 and 7, cannulated animals were randomly distributed into 8 groups (n=4 pigs per group).
# Blood samples for pGH assay were collected every 20 min from 1 hour before to 7 hours after GRF injections, (n=25 samples). Blood samples were allowed to clot at +4CC. Serum is harvested by centrifugation, stored at −20° C. and submitted to pGH assays.
# [4] = Experiment 1, 20 μg/kg BID SC × 4 days, mean of 6 to 7
# [5] = Experiment 2, 40 μg/kg BID SC × 5 days, mean of 8
# [6] = Experiment 3, 30 μg/kg BID SC × 5 days, mean of 8
substance,measurement,setting,value
TH 9507: one of 8 different hGRF(1-44)NH2 analogues provided by the sponsor; structure not stated ({Hexenoyl(3E)}-YADAIFTNSYRKVLGQLSARKLLQDIMSRQQGESNQERGARARL-NH2),IGF-1 levels on day 6 compared to basal levels on day 1,"IGF-1 levels in pig sera; S.C. chronic administration in growing male pigs, FIG. 7",significantly increased IGF-1 levels
same,IGF-1 levels following 5 days of injection,"IGF-1 levels in pig sera; S.C. chronic administration in growing male pigs, saline group 190.1±21.0 ng/ml",279.1 ± 28.4 ng/mL
"hGRF (1-29)NH2 [hGRF(1-29)NH2, reference compound]",effect on GH area under the curve (0 to 300 minutes following injection),"pig serum GH [1]; I.V., FIG. 3",significant effect on GH secretion
same,duration of GH release following injection,"pig serum GH [1]; one intravenous injection, FIG. 2",approximately 60 minutes
same,effect on IGF-I levels,"serum IGF-I; Experiment 1, 20 μg/kg BID SC × 4 days",ineffective
same,effect on IGF-I levels,"serum IGF-I; Experiment 1, 20 μg/kg BID SC × 4 days, listed as Human GRF(1-29)NH2",no effect on IGF-I levels
same,"serum IGF-I, Day 2",serum IGF-I; [4],235 ng/mL
same,"serum IGF-I, Day 3",serum IGF-I; [4],263 ng/mL
same,"serum IGF-I, Day 4",serum IGF-I; [4],258 ng/mL
same,"serum IGF-I, Day 5",serum IGF-I; [4],262 ng/mL
same,"serum IGF-I, Day 1 (pretreatment)",serum IGF-I; [4],252 ng/mL
same,serum IGF-I levels,"serum IGF-I; Experiment 2, 40 μg/kg BID SC × 5 days",remained stable
same,"serum IGF-I, Day 2",serum IGF-I; [5],243 ng/mL
same,"serum IGF-I, Day 3",serum IGF-I; [5],267 ng/mL
same,"serum IGF-I, Day 4",serum IGF-I; [5],275 ng/mL
same,"serum IGF-I, Day 5",serum IGF-I; [5],267 ng/mL
same,"serum IGF-I, Day 6",serum IGF-I; [5],256 ng/mL
same,"serum IGF-I, Day 1 (pretreatment)",serum IGF-I; [5],244 ng/mL
same,degradation in a serum medium,[2],rapidly degraded
same,"effect on GH area under the curve, 0 to 420 minutes following injection",pig serum GH [3]; 1.25 μg/kg,did not induce any significant GH response
same,"effect on GH area under the curve, 0 to 420 minutes following injection",pig serum GH [3]; 5 μg/kg,did not induce any significant GH response
same,"effect on GH area under the curve, 0 to 420 minutes following injection",pig serum GH [3]; 20 μg/kg,did not induce any significant GH response
same,duration of GH response following administration,"pig serum GH [3]; one subcutaneous injection, 5 μg/kg, FIG. 4",≤ 60 min
hGRF(1-44)NH2 (YADAIFTNSYRKVLGQLSARKLLQDIMSRQQGESNQERGARARL-NH2) [reference compound],effect on IGF-I levels,"serum IGF-I; Experiment 3, 30 μg/kg BID SC × 5 days, except a significant effect on day 5, not sustained on day 6",little or no effect on IGF-I levels
same,"serum IGF-I, Day 2",serum IGF-I; [6],254 ng/mL
same,"serum IGF-I, Day 3",serum IGF-I; [6],285 ng/mL
same,"serum IGF-I, Day 4",serum IGF-I; [6],297 ng/mL
same,"serum IGF-I, Day 5",serum IGF-I; [6],303 ng/mL
same,"serum IGF-I, Day 6",serum IGF-I; [6],296 ng/mL
same,"serum IGF-I, Day 1 (pretreatment)",serum IGF-I; [6],245 ng/mL
same,variations of IGF-1 concentrations in the study period,"IGF-1 levels in pig sera; injected subcutaneously in pigs twice a day at 10 ug/kg, FIG. 7",not able to induce any significant increase in IGF-1 levels
